For series [1] the following is noted: 298.15 K; 101.33 kPa; Liquid; Vibrating tube method.
Series [2] is described as follows: refractive index (Na D-line) (dimensionless). The note with it: 298.15 K; 101.33 kPa; Liquid; Standard Abbe refractometry.

± gives the expanded uncertainty stated by the source.

By mass density is commonly meant mass per unit of volume. One may read the refractive index as the speed of light in vacuum divided by its phase velocity in the sample.

As for `OCCCO` [propan-1,3-diol], in series [1], the mass density is listed as 1049.68 ± 0.14 kg/m3. Besides, the refractive index in series [2] is 1.43851 ± 0.00032.

In the case of `CC(C)O` [propan-2-ol], the mass density in series [1] was 781.18 ± 0.15 kg/m3. In series [2], the refractive index is 1.3752 ± 0.00032. On to `O` [water], for which the refractive index in series [2] is 1.33237 ± 0.00032.
